Experimental data as given in ChEMBL document CHEMBL3885881, “DrugMatrix”.

Species: Rattus norvegicus
Assay: DrugMatrix - Regimen: Daily Repeat
Assay type: toxicity, organism-based, Sprague-Dawley
Parameters: regimen Daily Repeat, gender Male, age 6-8 weeks
Settings: in vivo, sc, route subcutaneous, […]; for BASOPHIL / EOSINOPHIL / ERYTHROCYTE COUNT / HEMATOCRIT / HEMOGLOBIN / LEUKOCYTE COUNT / LYMPHOCYTE / MEAN CORPUSCULAR HEMOGLOBIN / MEAN CORPUSCULAR HEMOGLOBIN CONCENTRATION / MEAN CORPUSCULAR VOLUME / MONOCYTE / NEUTROPHIL / PLATELET COUNT: tissue Blood; for ALANINE AMINOTRANSFERASE / ALBUMIN / ALKALINE PHOSPHATASE / ASPARTATE AMINOTRANSFERASE / BLOOD UREA NITROGEN / CARBON DIOXIDE / CHLORIDE / CHOLESTEROL / CREATININE / GLUCOSE / LACTATE DEHYDROGENASE / LIPASE / PHOSPHORUS / POTASSIUM / TOTAL BILIRUBIN / TOTAL PROTEIN / URIC ACID: tissue Plasma
[1] = 4 mg/kg, 72 h, dose level Low, time 3 day
[2] = 4 mg/kg, 120 h, dose level Low, time 5 day
[3] = 36 mg/kg, 72 h, dose level High, time 3 day
[4] = 36 mg/kg, 120 h, dose level High, time 5 day

`Nc1c2ccccc2nc2ccccc12` [AMINACRINE] was tested, and the BASOPHIL [1] was 0%, the EOSINOPHIL [1] was 0.67% and the “ERYTHROCYTE COUNT” value [1] was 6.9 x10E6/uL. For the same compound, the HEMATOCRIT [1] was 42.07%, the HEMOGLOBIN [1] was 14.07 G/DL and the “LEUKOCYTE COUNT” value [1] was 11.4 x10E3/uL. For the same compound, the LYMPHOCYTE [1] was 65.33%, the “MEAN CORPUSCULAR HEMOGLOBIN” value [1] was 20.43 pg and the “MEAN CORPUSCULAR HEMOGLOBIN CONCENTRATION” value [1] was 33.4 G/DL. The “MEAN CORPUSCULAR VOLUME” value [1] was 61.1 fL, the MONOCYTE [1] was 8.67% and the NEUTROPHIL [1] was 25.67%. The “PLATELET COUNT” value [1] was 1093.67 x10E3/uL, the “ALANINE AMINOTRANSFERASE” value [1] was 44 u/L and the ALBUMIN [1] was 3.9 G/DL. The “ALKALINE PHOSPHATASE” value [1] was 311.67 u/L, the “ASPARTATE AMINOTRANSFERASE” value [1] was 81 u/L and the “BLOOD UREA NITROGEN” value [1] was 14.67 mg/dL. For the same compound, the “CARBON DIOXIDE” value [1] was 22.33 mmol/L, the CHLORIDE [1] was 106 MEQ/L and the CHOLESTEROL [1] was 68.33 mg/dL. For the same compound, the CREATININE [1] was 0.3 mg/dL, the GLUCOSE [1] was 144.67 mg/dL and the “LACTATE DEHYDROGENASE” value [1] was 297.67 u/L. It also gave an LIPASE [1] of 8.67 u/L, a PHOSPHORUS [1] of 9.93 mg/dL and a POTASSIUM [1] of 5.93 MEQ/L. For the same compound, the “TOTAL BILIRUBIN” value [1] was 0.1 mg/dL, the “TOTAL PROTEIN” value [1] was 6 G/DL and the “URIC ACID” value [1] was 0.93 mg/dL. For the same compound, the BASOPHIL [2] was 0.33%, the EOSINOPHIL [2] was 0% and the “ERYTHROCYTE COUNT” value [2] was 6.82 x10E6/uL. For the same compound, the HEMATOCRIT [2] was 42.2%, the HEMOGLOBIN [2] was 13.8 G/DL and the “LEUKOCYTE COUNT” value [2] was 13.23 x10E3/uL. The LYMPHOCYTE [2] was 62%, the “MEAN CORPUSCULAR HEMOGLOBIN” value [2] was 20.2 pg and the “MEAN CORPUSCULAR HEMOGLOBIN CONCENTRATION” value [2] was 32.67 G/DL. For the same compound, the “MEAN CORPUSCULAR VOLUME” value [2] was 61.87 fL, the MONOCYTE [2] was 3% and the NEUTROPHIL [2] was 34.33%. The “PLATELET COUNT” value [2] was 1028 x10E3/uL, the “ALANINE AMINOTRANSFERASE” value [2] was 47 u/L and the ALBUMIN [2] was 3.4 G/DL. The “ALKALINE PHOSPHATASE” value [2] was 316 u/L, the “ASPARTATE AMINOTRANSFERASE” value [2] was 78.33 u/L and the “BLOOD UREA NITROGEN” value [2] was 17.33 mg/dL. The “CARBON DIOXIDE” value [2] was 22.67 mmol/L, the CHLORIDE [2] was 100.33 MEQ/L and the CHOLESTEROL [2] was 66.33 mg/dL. The CREATININE [2] was 0.3 mg/dL, the GLUCOSE [2] was 141.67 mg/dL and the “LACTATE DEHYDROGENASE” value [2] was 188.67 u/L. It also gave an LIPASE [2] of 8 u/L, a PHOSPHORUS [2] of 9.9 mg/dL and a POTASSIUM [2] of 5.47 MEQ/L. For the same compound, the “TOTAL BILIRUBIN” value [2] was 0.1 mg/dL, the “TOTAL PROTEIN” value [2] was 6.13 G/DL and the “URIC ACID” value [2] was 0.9 mg/dL. The BASOPHIL [3] was 0.33%, the EOSINOPHIL [3] was 0.33% and the “ERYTHROCYTE COUNT” value [3] was 6.95 x10E6/uL. The HEMATOCRIT [3] was 42.07%, the HEMOGLOBIN [3] was 14.1 G/DL and the “LEUKOCYTE COUNT” value [3] was 8.8 x10E3/uL. For the same compound, the LYMPHOCYTE [3] was 76%, the “MEAN CORPUSCULAR HEMOGLOBIN” value [3] was 20.3 pg and the “MEAN CORPUSCULAR HEMOGLOBIN CONCENTRATION” value [3] was 33.47 G/DL. For the same compound, the “MEAN CORPUSCULAR VOLUME” value [3] was 60.57 fL, the MONOCYTE [3] was 3% and the NEUTROPHIL [3] was 20.33%. The “PLATELET COUNT” value [3] was 1177.67 x10E3/uL, the “ALANINE AMINOTRANSFERASE” value [3] was 44.33 u/L and the ALBUMIN [3] was 3.27 G/DL. The “ALKALINE PHOSPHATASE” value [3] was 226.33 u/L, the “ASPARTATE AMINOTRANSFERASE” value [3] was 101.67 u/L and the “BLOOD UREA NITROGEN” value [3] was 17 mg/dL. The “CARBON DIOXIDE” value [3] was 22 mmol/L, the CHLORIDE [3] was 106 MEQ/L and the CHOLESTEROL [3] was 62 mg/dL. For the same compound, the CREATININE [3] was 0.3 mg/dL, the GLUCOSE [3] was 151 mg/dL and the “LACTATE DEHYDROGENASE” value [3] was 142.33 u/L. For the same compound, the LIPASE [3] was 7.67 u/L, the PHOSPHORUS [3] was 9.3 mg/dL and the POTASSIUM [3] was 6 MEQ/L. The “TOTAL BILIRUBIN” value [3] was 0.1 mg/dL, the “TOTAL PROTEIN” value [3] was 6.07 G/DL and the “URIC ACID” value [3] was 1.17 mg/dL. The BASOPHIL [4] was 0%, the EOSINOPHIL [4] was 0% and the “ERYTHROCYTE COUNT” value [4] was 6.75 x10E6/uL. For the same compound, the HEMATOCRIT [4] was 41.37%, the HEMOGLOBIN [4] was 13.1 G/DL and the “LEUKOCYTE COUNT” value [4] was 11.17 x10E3/uL. The LYMPHOCYTE [4] was 59.67%, the “MEAN CORPUSCULAR HEMOGLOBIN” value [4] was 19.43 pg and the “MEAN CORPUSCULAR HEMOGLOBIN CONCENTRATION” value [4] was 31.73 G/DL. For the same compound, the “MEAN CORPUSCULAR VOLUME” value [4] was 61.3 fL, the MONOCYTE [4] was 4.33% and the NEUTROPHIL [4] was 35.67%. The “PLATELET COUNT” value [4] was 1310.67 x10E3/uL, the “ALANINE AMINOTRANSFERASE” value [4] was 40.67 u/L and the ALBUMIN [4] was 2.83 G/DL. For the same compound, the “ALKALINE PHOSPHATASE” value [4] was 304.33 u/L, the “ASPARTATE AMINOTRANSFERASE” value [4] was 111 u/L and the “BLOOD UREA NITROGEN” value [4] was 17.33 mg/dL. The “CARBON DIOXIDE” value [4] was 22 mmol/L, the CHLORIDE [4] was 101.67 MEQ/L and the CHOLESTEROL [4] was 48 mg/dL. For the same compound, the CREATININE [4] was 0.3 mg/dL, the GLUCOSE [4] was 157.67 mg/dL and the “LACTATE DEHYDROGENASE” value [4] was 113.33 u/L. For the same compound, the LIPASE [4] was 7 u/L, the PHOSPHORUS [4] was 9 mg/dL and the POTASSIUM [4] was 5.17 MEQ/L. For the same compound, the “TOTAL BILIRUBIN” value [4] was 0.1 mg/dL, the “TOTAL PROTEIN” value [4] was 5.5 G/DL and the “URIC ACID” value [4] was 0.97 mg/dL.
